Results: PMC10505172, “Discovery and pharmacophoric characterization of chemokine network inhibitors using phage-display, saturation mutagenesis and computational modelling” (Nature Communications, 2023)
Where two headings read alike, the source gives them in different places. Ends that are not written are not given here.

Legend:
[1] = tested on: 25 biotinylated chemokines; assay: Phage-display library selection with deep sequencing; type: binding, human; conditions: multivalent p8 phage display, three selection rounds, 25 chemokine baits, enrichment vs input library
Experimental: Phage display screening was performed using a protocol as described[71] with certain modifications. Experiments were performed in 96-well plates (Greiner Bio-One, 655180). Briefly, biotinylated chemokines (1 μg, Almac or ProteinFoundry, Supplementary Table 1) were immobilised on 5 μl streptavidin-coated magnetic beads (Dynabeads™ M-280 Streptavidin, Invitrogen, 11205D) and incubated overnight at 4 °C. […]
Inserts from the input library and from the final phage population following selection were amplified by PCR using primers: 5′- […] and 5′-[…], (Life Technologies). The PCR products were cleaned up using Monarch® PCR & DNA Cleanup Kit (5 μg) (T1030, NEB), 260/280 ratio determined by Nanodrop, quantified using a Qubit dsDNA Quantitation, High Sensitivity Kit (Q32851, Thermo Scientific) and subsequently sequenced at Azenta/GeneWiz using the AmpliconEZ protocol.
Paired end read Fastq files were joined by the read id. […] Hexadecapeptide enrichment (E) following selection was calculated as ratio of output peptide frequency to input peptide frequency and expressed as log2E. […]

CCL5 [2] = conditions: cited from earlier work
Description: Peptides and peptidomimetics that mimic the activity of parental proteins have been successfully developed from several naturally occurring proteins into viable clinical therapeutics. Exemplars include the peptidomimetics captopril, eptifibatide and tirofiban, which are based on peptides derived from the snake venom toxins bradykinin-potentiating-peptide, barbourin and echistatin respectively. […] Inspired by these exemplars, by usi ...

CCL8 [3] = molecular target: T1, CCL8 (Homo sapiens, UniProt P80075); assay: CCL8-induced THP1 cell migration (chemotaxis); type: cell-based; conditions: for effect on chemokine-induced cell migration compared with scrambled control HD2SCR: peptides 10 μM, chemokine at EC80, THP1 cells, n = 3 biological replicates, Dunnett's test
T1 construct: purchased Peprotech 300-15
T1 sequence (P80075 24-99): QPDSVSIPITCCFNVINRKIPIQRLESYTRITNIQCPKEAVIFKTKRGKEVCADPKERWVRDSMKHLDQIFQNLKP
Experimental: (§1) For THP1 migration assays, 300000 cells/well were added to the top chamber of a 5-µm 96-well Transwell insert (3387, Corning) in 50 µL of cell migration media (RPMI-1640 (R0883, Sigma), 0.5% FBS (F9665, Sigma), 4 mM L-Glutamine (G7513, Sigma), 0.05% DMSO (D4540, Sigma)). The bottom chamber contained 150 µL of migration media with chemokine and peptide added. Cells were migrated at 37 °C in 5% CO2 for 4 h.
Following the migration assay the migration plate was shaken at 850 RPM for 10 min, and media from bottom plate transferred to a round-bottomed 96 well plate (353910, Falcon). Cell counts were determined using an Atune NxT Flow Cytometer Plate Reader with Cytkick autosampler (ThermoFisher), based on cell size parameters FSC-H/SSC-H, and a previously defined gate setting for each cell type (Supplementary Fig. 11). All experiments were performed as three technical and three biological replicates. Statistical significances between control and experimental groups was evaluated using Dunnett’s test[73]. IC50 experiments were performed at the EC80 dose of chemokine. EC80 was calculated by fitting a chemokine dose-response curve with a 3-parameter log-logistic model (fixing the top to 100%) using the function “drm” in R-package drc[74]. IC50 was calculated by fitting an inhibitor response curve with a 4-parameter log-logistic model using the function “drm” in R-package drc[74]. All IC50 values reported had p-value < 0.05.

CCL5 [4] = molecular target: T2, CCL5 (Homo sapiens, UniProt P13501); assay: CCL5-induced THP1 cell migration (chemotaxis); type: cell-based
T2 construct: purchased Peprotech 300-06
T2 sequence (P13501 24-91): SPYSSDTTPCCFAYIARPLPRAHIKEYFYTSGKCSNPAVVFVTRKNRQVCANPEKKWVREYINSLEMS
Experimental: as §1
(§2) Following the migration assay the migration plate was shaken at 850 RPM for 10 min, and media from bottom plate transferred to a round-bottomed 96 well plate (353910, Falcon). Cell counts were determined using an Atune NxT Flow Cytometer Plate Reader with Cytkick autosampler (ThermoFisher), based on cell size parameters FSC-H/SSC-H, and a previously defined gate setting for each cell type (Supplementary Fig. 11). All experiments were performed as three technical and three biological replicates. Statistical significances between control and experimental groups was evaluated using Dunnett’s test[73]. IC50 experiments were performed at the EC80 dose of chemokine. EC80 was calculated by fitting a chemokine dose-response curve with a 3-parameter log-logistic model (fixing the top to 100%) using the function “drm” in R-package drc[74]. IC50 was calculated by fitting an inhibitor response curve with a 4-parameter log-logistic model using the function “drm” in R-package drc[74]. […]

CCL7 [5] = molecular target: T3, CCL7 (Homo sapiens, UniProt P80098); assay: CCL7-induced THP1 cell migration (chemotaxis); type: cell-based
T3 construct: purchased Peprotech 300-17
T3 sequence (P80098 24-99): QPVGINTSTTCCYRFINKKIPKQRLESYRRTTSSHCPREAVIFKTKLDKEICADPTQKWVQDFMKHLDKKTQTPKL
Experimental: as §1, §2

CXCL10 [6] = molecular target: T4, CXCL10 (Homo sapiens, UniProt P02778); assay: CXCL10-induced activated T cell (ATC) migration (chemotaxis); type: cell-based
T4 construct: purchased Peprotech 300-12
Experimental: For activated-T cell migration assays, 100000 cells/well were added to the top chamber of a 3-µm Transwell insert (3385, Corning) in 50 µL of migration media (HBSS (14025-092, Life Technologies), 0.1% protease free bovine serum albumin (A7030, Sigma), 0.05% DMSO (D4540, Sigma)). The bottom chamber contained 150 µL of migration media with chemokine and peptide added. Cells were migrated at 37 °C in 5% CO2 for 2 h.
as §2

CXCL6 = molecular target: T5, CXCL6 (Homo sapiens, UniProt P80162); assay: CXCL6-induced Jurkat CXCR1 (J:CXCR1) migration (chemotaxis); type: cell-based
T5 construct: purchased Peprotech 300-41
T5 sequence (P80162 38-114): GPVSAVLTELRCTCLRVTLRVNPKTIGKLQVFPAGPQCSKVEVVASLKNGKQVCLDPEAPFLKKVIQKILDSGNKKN
Experimental: as §1
J:CXCR1 migration assays were performed exactly as for THP1 assays except that a 3-µm Transwell insert (3385, Corning) was used.
Following the migration assay the migration plate was shaken at 850 RPM for 10 min, and media from bottom plate transferred to a round-bottomed 96 well plate (353910, Falcon). Cell counts were determined using an Atune NxT Flow Cytometer Plate Reader with Cytkick autosampler (ThermoFisher), based on cell size parameters FSC-H/SSC-H, and a previously defined gate setting for each cell type (Supplementary Fig. 11). […] Statistical significances between control and experimental groups was evaluated using Dunnett’s test[73]. […] EC80 was calculated by fitting a chemokine dose-response curve with a 3-parameter log-logistic model (fixing the top to 100%) using the function “drm” in R-package drc[74]. IC50 was calculated by fitting an inhibitor response curve with a 4-parameter log-logistic model using the function “drm” in R-package drc[74]. […]

CCL8 [7] = molecular target: T1, CCL8; assay: Biolayer interferometry, His-SUMO peptide fusion binding to chemokine
Description: We next evaluated the ability of the exemplar peptide HD2 to bind a panel of chemokines (Supplementary Table 3) using biolayer interferometry (BLI). We generated HD2 and a scrambled control (HD2SCR) as HIS:SUMO fusion proteins in E.coli. This approach results in soluble proteins that can be immobilised on to BLI sensors through the N-terminal HIS tag. […] The binding of HD2 to these chemokines was characterised at different chemokine doses to evaluate binding affinity (KD). […] As chemokines are known to oligomerize in solution and also upon glycosaminoglycan binding, the most parsimonious explanation for this binding profile is chemokine oligomerization at the BLI sensor. […] The most likely explanation is that multivalent phage peptide-display allows identification of lower affinity interactions in comparison to BLI[40].
The binding of His-SUMO tagged peptide fusions to various chemokines (Supplementary Table 3) was investigated by biolayer interferometry (BLI) using Ni-NTA biosensors (18-5101, ForteBio). All BLI data were obtained at 25 °C using a ForteBio-Sartorius Octet RED 384 instrument and Octet 384-well tilted bottom microplate (18-5080, Sartorius). […] Kinetic data was analysed using buffer subtracted wavelength shift and a 1:1 binding model.

CCL11 = assay: Biolayer interferometry cross-binding screen; design: species or system human; conditions: 1 μM chemokine, fusion 1 mg/mL immobilised; specific if Rmax exceeded 3 times Rmax of SUMO:HD2SCR; two independent experiments
Experimental: (§3) The binding of His-SUMO tagged peptide fusions to various chemokines (Supplementary Table 3) was investigated by biolayer interferometry (BLI) using Ni-NTA biosensors (18-5101, ForteBio). All BLI data were obtained at 25 °C using a ForteBio-Sartorius Octet RED 384 instrument and Octet 384-well tilted bottom microplate (18-5080, Sartorius). The biosensors were preincubated overnight at room temperature in BLI buffer (PBS, 500 mM NaCl, 0.01% BSA (A7638, Sigma) + 0.002% Tween (P2287, Sigma)). His-SUMO tagged peptide fusions at 1 mg/mL (for cross-binding screen assay) and at 0.25 mg/mL (for kinetic assays) were immobilised on the Ni-NTA biosensors for 500 s using the BLI buffer. The HIS:SUMO fusion-loaded biosensors were then washed in the BLI buffer to allow signal stabilisation. To study the association with the analyte (chemokines), the biosensors were then dipped in chemokine solutions of various concentrations (1 μM for cross-binding screen assays, a range of 25–750 nM for kinetic assays) made in the BLI buffer, for either 300 s for cross-binding screen assays, or 600 s for kinetic assays. This was followed by the dissociation step, where the biosensors were incubated in BLI buffer for 300 s for screening assays and 600 s for kinetic assays. For chemokine cross-binding screens, wavelength shift was normalised by subtracting the signal from buffer control, and normalising the highest Rmax (i.e., with CCL8 and HD2) obtained in the experiment to 1. Kinetic data was analysed using buffer subtracted wavelength shift and a 1:1 binding model. […]
(§4) independent experiments. Plots display normalised wavelength shift (y axis; nm) versus time (x-axis; seconds). Vertical dotted line indicates the onset of dissociation. Cross-binding experiments (at 1 uM chemokine concentration) were performed with a panel of chemokines (see Supplementary information
(§5) Table 3). […] Chemokine names are indicated. […]
(§6) specific binding in two independent experiments are shown. […]

CCL1 = assay: Biolayer interferometry cross-binding screen; design: species or system human; conditions: 1 μM chemokine, fusion 1 mg/mL immobilised; specific if Rmax exceeded 3 times Rmax of SUMO:HD2SCR; two independent experiments
Experimental: as §3, §4, §5, §6

CXCL13 = assay: Biolayer interferometry cross-binding screen; design: species or system human; conditions: 1 μM chemokine, fusion 1 mg/mL immobilised; specific if Rmax exceeded 3 times Rmax of SUMO:HD2SCR; two independent experiments
Experimental: as §3, §4, §5, §6

CCL5 [8] = molecular target: T2, CCL5; assay: Biolayer interferometry cross-binding screen; conditions: 1 μM chemokine, fusion 1 mg/mL immobilised; specific if Rmax exceeded 3 times Rmax of SUMO:HD2SCR; two independent experiments
Experimental: as §3, §4, §5, §6

CCL7 [9] = molecular target: T3, CCL7; assay: Biolayer interferometry cross-binding screen; conditions: 1 μM chemokine, fusion 1 mg/mL immobilised; specific if Rmax exceeded 3 times Rmax of SUMO:HD2SCR; two independent experiments
Experimental: as §3, §4, §5, §6

CXCL10 [10] = molecular target: T4, CXCL10; assay: Biolayer interferometry cross-binding screen; conditions: 1 μM chemokine, fusion 1 mg/mL immobilised; specific if Rmax exceeded 3 times Rmax of SUMO:HD2SCR; two independent experiments
Experimental: as §3, §4, §5, §6

## EEEDDYTAYAPLTCYF [HD7, hexadecapeptide from evasin EVA4_RHISA]
[1]
  number of chemokines bound with log2E > 5: over 15

## EEEDDYTAYAPLTAYFTN [Ev4Glu^14-Asn^31]
CCL5 [2]
  inhibition of CCL5 function: inhibits CCL5 function

## EEDDYTAYAPLTCYFT-NH2 [HD2]
CCL8 [3]
  IC50: 19 nM
CCL5 [4]
  IC50: 790 nM
CCL7 [5]
  IC50: 5700 nM
CXCL10 [6]
  IC50: 2500 nM
CXCL6
  IC50: 7100 nM
CXCL6; IC50, median, median of biological replicates (n = 3), Fig. 6k, J:CXCR1 cells, chemokine at EC80
  IC50: 14000 nM

## sHD2: HD2 generated as HIS:SUMO fusion protein in E.coli for BLI (EEDDYTAYAPLTCYFT; also: HIS:SUMO fusion protein, side not given here)
CCL8 [7]; 1 μM chemokine, fusion 1 mg/mL immobilised, specific if Rmax exceeded 3 times Rmax of SUMO:HD2SCR, two independent experiments
  specific binding in BLI cross-binding screen: specifically and reproducibly bind
CCL8 [7]; Expt ID E12, N = 5 dose responses with good fits, BLI kinetic assay, 1:1 binding model, 25 °C
  Kd: 142 nM
CCL11
  specific binding in BLI cross-binding screen: specifically and reproducibly bind
CCL1
  specific binding in BLI cross-binding screen: specifically and reproducibly bind
CXCL13
  specific binding in BLI cross-binding screen: specifically and reproducibly bind
CCL5 [8]
  specific binding in BLI cross-binding screen: specifically and reproducibly bind
CCL7 [9]
  specific binding in BLI cross-binding screen: specifically and reproducibly bind
CXCL10 [10]
  specific binding in BLI cross-binding screen: specifically and reproducibly bind

## DEDYEDFFKPVTCYFA [HD540, hexadecapeptide from evasin EV672_RHIPC]
CCL8 [3]
  effect on chemokine-induced cell migration compared with scrambled control HD2SCR: inhibition

## EDEDYEDFFKPVTCYF [HD845, hexadecapeptide from evasin EV672_RHIPC, previously described as BK1.5]
CCL8 [3]
  effect on chemokine-induced cell migration compared with scrambled control HD2SCR: inhibition
